Where two headings read alike, the source gives them in different places.
Tests used:
[1] = molecular target: NDM-1 (Klebsiella pneumoniae, UniProt C7C422); test: Enzyme activity: determination of IC50, fluorescence assay with CCF2-FA substrate; format: biochemical; settings: CCF2-FA 1.25 μM, 2 hours at 25° C., read-out: NDM1 IC50
Summary of the method: (§1)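 In pH 7 phosphate buffer (100 mM) with 10 μM ZnSO4 and 0.005% Tween-20, CCF2-FA substrate (1.25 μM final) was hydrolysed for 2 h at 25 °C by NDM-1, IMP-1 or VIM-1 at 1, 2 or 30 pM in the presence of inhibitor at 20–0.00063 μM. Emission 460 nm/excitation 405 nm; 4-parameter curve fit gave IC50.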

[2] = molecular target: VIM-1 (Pseudomonas aeruginosa, UniProt A0A0F7KYQ8); test: as above; format: biochemical; settings: CCF2-FA 1.25 μM, 2 hours at 25° C., read-out: VIM1 IC50
Summary of the method: as §1

[3] = molecular target: IMP-1 (Serratia marcescens, UniProt P52699); test: as above; format: biochemical; settings: CCF2-FA 1.25 μM, 2 hours at 25° C., read-out: IMP1 IC50
Summary of the method: as §1

[4] = system: Klebsiella pneumoniae expressing VIM-1 (IHMA599644); test: Antibiotic potentiation activity: synergistic concentration (MITC95) with imipenem, growth by OD600; format: cell-based
Summary of the method: (§2)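 MITC95 = lowest inhibitor concentration giving 95% growth inhibition, read by absorbance after 22–24 h at 35° C. Compound range 200 μM to 0.195 μM, imipenem fixed at 1 or 4 μg/ml, bacteria in 1.1×CAMHB from saline suspension diluted 1:100.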

[5] = system: Serratia marcescens expressing IMP-1 (CL5741); test: as above; format: cell-based
Summary of the method: as §2

[6] = system: Escherichia coli expressing NDM-1 (CLB30016); test: as above; format: cell-based
Summary of the method: as §2

[7] = K. pneumoniae IHMA599644 (VIM-1), 95% inhibition of growth
[8] = S. marcescens CL5741 (IMP-1), 95% inhibition of growth
[9] = E. coli CLB30016 (NDM-1), 95% inhibition of growth
[10] = 95% inhibition of bacterial growth, strain IHMA599644
[11] = 95% inhibition of bacterial growth, strain CL5741
[12] = 95% inhibition of bacterial growth, strain CLB30016

NDM-1, sequence (C7C422 29-270, looked up, species assumed): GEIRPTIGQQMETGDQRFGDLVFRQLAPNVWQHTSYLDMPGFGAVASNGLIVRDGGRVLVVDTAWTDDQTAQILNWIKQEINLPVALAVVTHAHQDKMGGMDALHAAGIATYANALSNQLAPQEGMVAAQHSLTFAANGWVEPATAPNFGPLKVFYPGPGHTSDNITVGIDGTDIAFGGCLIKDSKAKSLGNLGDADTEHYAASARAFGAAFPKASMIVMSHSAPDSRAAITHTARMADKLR
IMP-1, sequence (P52699 19-246, looked up, species assumed): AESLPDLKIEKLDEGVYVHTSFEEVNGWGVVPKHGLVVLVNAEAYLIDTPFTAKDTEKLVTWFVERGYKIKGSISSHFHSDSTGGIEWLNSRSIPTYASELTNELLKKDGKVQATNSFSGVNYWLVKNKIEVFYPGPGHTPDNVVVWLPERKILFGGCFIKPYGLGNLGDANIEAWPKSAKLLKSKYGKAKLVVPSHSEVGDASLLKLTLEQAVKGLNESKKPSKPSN

Row | SMILES | IC50 ([1]; NDM-1 enzyme 1 pM) [nM] | IC50 ([2]; VIM-1 enzyme 30 pM) [nM] | IC50 ([3]; IMP-1 enzyme 2 pM) [nM] | VIM1 KP599644 MITC95 [4, 7] [µM] | IMP1 SM5741 MITC95 [5, 8] [µM] | NDM1 EC30016 MITC95 [6, 9] [µM] | IC50 ([1]; enzyme 1 pM) [nM] | IC50 ([2]; enzyme 30 pM) [nM] | IC50 ([3]; enzyme 2 pM) [nM] | VIM1 KP599644 MITC95 [4, 10] [µM] | IMP1 SM5741 MITC95 [5, 11] [µM] | NDM1 EC30016 MITC95 [6, 12] [µM]
1 | CC(C)C[C@H](C(=O)O)[C@H](Cc1ccc(N2CC3(CNC(=O)C3)C2)nc1)c1nnn[nH]1 [Example 328, (2S)-4-methyl-2-[(1S)-2-[6-(7-oxo-2,6-diazaspiro[3.4]oct-2-yl)pyridin-3-yl]-1-(1H-tetrazol-5-yl)ethyl]pentanoic acid] | 260 | 12 | 1100 | 50 | 50 | 9.4 |  |  |  |  |  | 
2 | CC(C)C[C@H](C(=O)O)[C@H](Cc1ccc(Br)c(F)c1)c1nnn[nH]1 [Example 23, (2S)-2-[(1S)-2-(4-bromo-3-fluorophenyl)-1-(1H-tetrazol-5-yl)ethyl]-4-methylpentanoic acid] |  |  |  |  |  |  | 20 | 1.4 | 88 | 31 | 3.1 | 6.3
3 | CCC[C@H](C(=O)O)[C@H](Cc1ccc(NCc2cc(OC)cc(OC)c2)nc1)c1nnn[nH]1 [Example 144, (S)-2-((S)-2-(6-((3,5-dimethoxybenzyl)amino)pyridin-3-yl)-1-(1H-tetrazol-5-yl)ethyl)pentanoic acid] |  |  |  |  |  |  | 16 | 15 | 370 | 200 | 62 | 7.8
4 | O=C(O)[C@@H](C1CCOC1)[C@H](Cc1ccc(C2CCNC2)cc1)c1nnn[nH]1 (stereo partly drawn) [Example 107, (2R,3S)-4-(4-(pyrrolidin-3-yl)phenyl)-2-(tetrahydrofuran-3-yl)-3-(1H-tetrazol-5-yl)butanoic acid] |  |  |  |  |  |  | 380 | 30 | 5900 | 12.5 | 50 | 9.4
5 | CNc1ccc(C[C@H](c2nnn[nH]2)[C@@H](C(=O)O)C(C)C)cn1 [Example 152, (2S,3S)-2-isopropyl-4-(6-(methylamino)pyridin-3-yl)-3-(1H-tetrazol-5-yl)butanoic acid] |  |  |  |  |  |  | 62 | 29 | 5300 | 6.2 | 38 | 0.39
6 | CCC[C@H](C(=O)O)[C@H](Cc1cccc(-c2ccc(NS(C)(=O)=O)cc2)c1)c1nn[nH]n1 [Example 343, (2S)-2-[(1S)-2-{4′-[(methylsulfonyl)amino]biphenyl-3-yl}-1-(2H-tetrazol-5-yl)ethyl]pentanoic acid] | 11 | 2.4 | 22 | 18.8 | 0.39 | 25 |  |  |  |  |  | 
7 | CC(C)C[C@H](C(=O)O)[C@H](Cc1ccc(S(C)(=O)=O)cc1)c1nn[nH]n1 [Example 50, (S)-4-methyl-2-((S)-2-(4-(methylsulfonyl)phenyl)-1-(2H-tetrazol-5-yl)ethyl)pentanoic acid] |  |  |  |  |  |  | 47 | 6.6 | 100 | 50 | 6.2 | 25
8 | CCC[C@H](C(=O)O)[C@H](Cc1ccc(C(=O)O)cc1)c1nn[nH]n1 [Example 283, 4-((2S,3S)-3-carboxy-2-(2H-tetrazol-5-yl)hexyl)benzoic acid] | 50 | 17 | 850 | 200 | 38 | 100 |  |  |  |  |  | 
9 | CCC[C@H](C(=O)O)[C@H](Cc1ccccc1C#N)c1nnn[nH]1 [Example 43, (2S)-2-[(1S)-2-(2-cyanophenyl)-1-(1H-tetrazol-5-yl)ethyl]pentanoic acid] |  |  |  |  |  |  | 22 | 3.2 | 1600 | 31 | 50 | 4.7
10 | CC(C)[C@H](C(=O)O)[C@H](Cc1csc(C2CCNC2)n1)c1nnn[nH]1 (stereo partly drawn) [Example 108, (2S,3S)-2-isopropyl-4-(2-(pyrrolidin-3-yl)thiazol-4-yl)-3-(1H-tetrazol-5-yl)butanoic acid] |  |  |  |  |  |  | 2800 | 750 | > 20000 | 37 | >200 | 12.5

Source: patent US9839642B2, “Beta-tetrazolyl-propionic acids as metallo-beta-lactamase inhibitors” (priority 2014, dated 2017)
